From US20240285551A1, “A SMALL MOLECULE TNF-a INHIBITOR AND PREPARATION METHOD AND USE THEREOF” (FUDAN UNIVERSITY, priority 2021, published 2024)

Columns and labels:
[1] = system: DSS induced acute ulcerative colitis model in C57 mice; assay: DSS induced acute ulcerative colitis in C57 mice (body weight, DAI, colon length, H&E pathology); format: in vivo; conditions: 10 mg/kg
Experimental: (§1) Except for the normal group, all other groups of mice were allowed to freely drink a 3% DSS solution which was freshly prepared and replaced the next day (wherein the 3% DSS solution was prepared by weighing 3 g of a DSS powder (from MP Biomedicals, USA with a molecular weight of 36,000 to 50,000) and fully dissolving it in 100 mL of the drinking water for the mice); whereas the normal group was given blank drinking water; the control group mice drank water normally for 7 days, while the DSS group mice drank the 3% DSS solution freely for 7 days and were administrated for 6 days from the second day DSS was given. The mice were administered by gavage once a day with a volume of 10 mL/kg, wherein the normal control group and DSS group were gavaged with a solvent of 0.5% CMC-Na (wherein a 0.5% CMC-Na solution is at a concentration of 0.5 g/100 mL, the same below), while the other groups were separately gavaged with drugs dissolved in 0.5% CMC-Na.
The normal control group mice were vivacious with glossy fur, stable weight gain, and normal stools appearing elliptical or spindle shaped.
In order to further evaluate the disease development for each group of acute UC mice, we performed DAI scoring on the loose and bloody stools etc. for each mouse (see panel B1 in FIG. 3). […] As the experiment progressed, the disease became gradually worsened, with some animals experiencing severe bloody stools and significant emaciation.
After dissection, the colon of each mouse was taken and the length of the colon was measured separately.

TNF-α [2] = assay: serum TNF-α protein by ELISA, DSS acute UC mice; format: in vivo; conditions: 10 mg/kg
Experimental: as §1
(§2) To investigate the effects of compounds (R)-STU104, (S)-STU104, and (±)-STU104 on the secretion of such inflammatory factors as TNF-α, IL-1β, IL-6, and IL-23 by mice of the DSS induced acute ulcerative colitis model in C57 mice, we isolated serum after blood acquisition and detected the contents of such inflammatory factors as TNF-α, IL-1β, IL-6, and IL-23 in the serum of mice using ELISA.

IL-1β [3] = assay: serum IL-1β protein by ELISA, DSS acute UC mice; format: in vivo; conditions: 10 mg/kg
Experimental: as §1

IL-6 [4] = assay: serum IL-6 protein by ELISA, DSS acute UC mice; format: in vivo; conditions: 10 mg/kg
Experimental: as §1, §2

IL-23 [5] = assay: serum IL-23 protein by ELISA, DSS acute UC mice; format: in vivo; conditions: 10 mg/kg
Experimental: as §1, §2

TNF-α [6] = assay: colon tissue TNF-α mRNA by qPCR, DSS acute UC mice; format: in vivo; conditions: 10 mg/kg
Experimental: as §1
(§3) After dissection, a segment of the colon was taken from the same part of each mouse, total RNAs were extracted from tissues, and mRNA expressions of such inflammatory factors as TNF-α, IL-1β, IL-6, and IL-23 in colon tissues of the mice were detected through qPCR.

IL-1β [7] = assay: colon tissue IL-1β mRNA by qPCR, DSS acute UC mice; format: in vivo; conditions: 10 mg/kg
Experimental: as §1, §3

IL-6 [8] = assay: colon tissue IL-6 mRNA by qPCR, DSS acute UC mice; format: in vivo; conditions: 10 mg/kg
Experimental: as §1, §3

IL-23 [9] = assay: colon tissue IL-23 mRNA by qPCR, DSS acute UC mice; format: in vivo; conditions: 10 mg/kg
Experimental: as §1, §3

TNF-α [10] = assay: release of the inflammatory factor TNF-α by LPS induced macrophages (RAW264.7), RT-PCR; format: cell-based; conditions: Mus musculus, RAW264.7, LPS 1 μg/ml, 24 hours, read-out: IC50 with respect to the release of the inflammatory factor TNF-α
Experimental: LPS (1 μg/ml) and different concentrations of (±)-STU104 or (R)-STU104 (0.1 to 50 μM) were added respectively after the cells grew to a fused state, and incubated together at 37° C. under 5% CO2 for 24 hours. A blank control group was established, and RT-PCR was employed to detect the inhibition states of TNF-α in cells by these compounds.

COc1ccc([C@@H]2CC(=O)c3cc(OC)cc(OC)c32)cc1 [(S)-STU104]
improvement of acute UC symptoms ([1]; compared with mesalazine 50 mg/kg): significantly lower than that in the mesalazine group
colon length recovery rate (inhibition of colon shortening) ([1]; gavage once a day): 14.5%
recovery rate of colon pathological sections (H&E) ([1]; gavage once a day): 13.9%
inhibition ratio of TNF-α protein content in serum (TNF-α [2]): 10.2%
inhibition ratio of IL-1β protein content in serum (IL-1β [3]): 18.1%
inhibition ratio of IL-6 protein content in serum (IL-6 [4]): 32.6%
inhibition ratio of IL-23 protein content in serum (IL-23 [5]): 18.9%
inhibition ratio of TNF-α mRNA in colon tissues (TNF-α [6]): 22.0%
inhibition ratio of IL-1β mRNA in colon tissues (IL-1β [7]): 27.7%
inhibition ratio of IL-6 mRNA in colon tissues (IL-6 [8]): 8.1%
inhibition ratio of IL-23 mRNA in colon tissues (IL-23 [9]): 10.6%

COc1ccc(C2CC(=O)c3cc(OC)cc(OC)c32)cc1 (racemic) [(±)-STU104]
IC50 (TNF-α [10]): 1270 nM
colon length recovery rate (inhibition of colon shortening) ([1]; gavage once a day): 25.7%
recovery rate of colon pathological sections (H&E) ([1]; gavage once a day): 48.3%
DAI score inhibition ratio ([1]; gavage once a day, day 7): 8.3%
body weight recovery rate ([1]; gavage once a day, day 7): 20.0%
inhibition ratio of TNF-α protein content in serum (TNF-α [2]): 48.1%
inhibition ratio of IL-1β protein content in serum (IL-1β [3]): 68.6%
inhibition ratio of IL-6 protein content in serum (IL-6 [4]): 49.1%
inhibition ratio of IL-23 protein content in serum (IL-23 [5]): 45.2%
inhibition ratio of TNF-α mRNA in colon tissues (TNF-α [6]): 55.4%
inhibition ratio of IL-1β mRNA in colon tissues (IL-1β [7]): 67.5%
inhibition ratio of IL-6 mRNA in colon tissues (IL-6 [8]): 56.1%
inhibition ratio of IL-23 mRNA in colon tissues (IL-23 [9]): 73.1%
